# From ChEMBL document CHEMBL3885881, “DrugMatrix”
# Organism: Rattus norvegicus
# Assay: DrugMatrix - Regimen: Daily Repeat
# Assay type: toxicity, organism-based, Sprague-Dawley
# Design: regimen Daily Repeat, gender Male, age 6-8 weeks
# Details: in vivo, po, route oral GAVAGE, […]; for ABSOLUTE BASOPHIL / ABSOLUTE EOSINOPHIL / ABSOLUTE LYMPHOCYTE / ABSOLUTE MONOCYTE / ABSOLUTE SEGMENTED NEUTROPHIL / BASOPHIL / EOSINOPHIL / ERYTHROCYTE COUNT / HEMATOCRIT / HEMOGLOBIN / LEUKOCYTE COUNT / LYMPHOCYTE / MEAN CORPUSCULAR HEMOGLOBIN / MEAN CORPUSCULAR HEMOGLOBIN CONCENTRATION / MEAN CORPUSCULAR VOLUME / MONOCYTE / NEUTROPHIL / NUCLEATED RED BLOOD CELLS / PLATELET COUNT: tissue Blood; for ALANINE AMINOTRANSFERASE / ALBUMIN / ALKALINE PHOSPHATASE / ASPARTATE AMINOTRANSFERASE / BLOOD UREA NITROGEN / CARBON DIOXIDE / CHLORIDE / CHOLESTEROL / CREATINE PHOSPHOKINASE / CREATININE / GLUCOSE / LACTATE DEHYDROGENASE / LIPASE / PHOSPHORUS / POTASSIUM / SODIUM / TOTAL BILIRUBIN / TOTAL PROTEIN / URIC ACID: tissue Plasma
# [1] = 0 mg/kg, 72 h, dose level Control, time 3 day
# [2] = 0 mg/kg, 120 h, dose level Control, time 5 day
# [3] = 29 mg/kg, 72 h, dose level Low, time 3 day
compound,measurement,setting,value
C[C@@H]1CN(c2c(F)c(N)c3c(=O)c(C(=O)O)cn(C4CC4)c3c2F)C[C@H](C)N1 [SPARFLOXACIN],ABSOLUTE BASOPHIL,[1],0 CELLS/uL
same,ABSOLUTE EOSINOPHIL,[1],70.67 CELLS/uL
same,ABSOLUTE LYMPHOCYTE,[1],12761.5 CELLS/uL
same,ABSOLUTE MONOCYTE,[1],214.17 CELLS/uL
same,ABSOLUTE SEGMENTED NEUTROPHIL,[1],987 CELLS/uL
same,BASOPHIL,[1],0%
same,EOSINOPHIL,[1],0.5%
same,ERYTHROCYTE COUNT,[1],5.61 x10E6/uL
same,HEMATOCRIT,[1],35.22%
same,HEMOGLOBIN,[1],13.57 G/DL
same,LEUKOCYTE COUNT,[1],14.03 x10E3/uL
same,LYMPHOCYTE,[1],91%
same,MEAN CORPUSCULAR HEMOGLOBIN,[1],24.25 pg
same,MEAN CORPUSCULAR HEMOGLOBIN CONCENTRATION,[1],38.52 G/DL
same,MEAN CORPUSCULAR VOLUME,[1],62.9 fL
same,MONOCYTE,[1],1.5%
same,NEUTROPHIL,[1],7%
same,NUCLEATED RED BLOOD CELLS,[1],0 /100WBC
same,PLATELET COUNT,[1],997.5 x10E3/uL
same,ALANINE AMINOTRANSFERASE,[1],66.5 u/L
same,ALBUMIN,[1],3.98 G/DL
same,ALKALINE PHOSPHATASE,[1],350 u/L
same,ASPARTATE AMINOTRANSFERASE,[1],83.83 u/L
same,BLOOD UREA NITROGEN,[1],12.33 mg/dL
same,CARBON DIOXIDE,[1],30.33 mmol/L
same,CHLORIDE,[1],100 MEQ/L
same,CHOLESTEROL,[1],75 mg/dL
same,CREATINE PHOSPHOKINASE,[1],200 u/L
same,CREATININE,[1],0.17 mg/dL
same,GLUCOSE,[1],170 mg/dL
same,LACTATE DEHYDROGENASE,[1],89.33 u/L
same,LIPASE,[1],10.33 u/L
same,PHOSPHORUS,[1],10.88 mg/dL
same,POTASSIUM,[1],6.13 MEQ/L
same,SODIUM,[1],140.53 MEQ/L
same,TOTAL BILIRUBIN,[1],0.2 mg/dL
same,TOTAL PROTEIN,[1],5.67 G/DL
same,URIC ACID,[1],1.6 mg/dL
same,ABSOLUTE BASOPHIL,[2],0 CELLS/uL
same,ABSOLUTE EOSINOPHIL,[2],0 CELLS/uL
same,ABSOLUTE LYMPHOCYTE,[2],9526.67 CELLS/uL
same,ABSOLUTE MONOCYTE,[2],134.17 CELLS/uL
same,ABSOLUTE SEGMENTED NEUTROPHIL,[2],922.5 CELLS/uL
same,BASOPHIL,[2],0%
same,EOSINOPHIL,[2],0%
same,ERYTHROCYTE COUNT,[2],5.58 x10E6/uL
same,HEMATOCRIT,[2],34.78%
same,HEMOGLOBIN,[2],13.5 G/DL
same,LEUKOCYTE COUNT,[2],10.58 x10E3/uL
same,LYMPHOCYTE,[2],90.17%
same,MEAN CORPUSCULAR HEMOGLOBIN,[2],24.27 pg
same,MEAN CORPUSCULAR HEMOGLOBIN CONCENTRATION,[2],38.82 G/DL
same,MEAN CORPUSCULAR VOLUME,[2],62.48 fL
same,MONOCYTE,[2],1.17%
same,NEUTROPHIL,[2],8.67%
same,NUCLEATED RED BLOOD CELLS,[2],0.17 /100WBC
same,PLATELET COUNT,[2],807.17 x10E3/uL
same,ALANINE AMINOTRANSFERASE,[2],66.83 u/L
same,ALBUMIN,[2],3.73 G/DL
same,ALKALINE PHOSPHATASE,[2],286.17 u/L
same,ASPARTATE AMINOTRANSFERASE,[2],142.33 u/L
same,BLOOD UREA NITROGEN,[2],14.67 mg/dL
same,CARBON DIOXIDE,[2],25.5 mmol/L
same,CHLORIDE,[2],89.17 MEQ/L
same,CHOLESTEROL,[2],75.17 mg/dL
same,CREATINE PHOSPHOKINASE,[2],310.67 u/L
same,CREATININE,[2],0.2 mg/dL
same,GLUCOSE,[2],153 mg/dL
same,LACTATE DEHYDROGENASE,[2],1594 u/L
same,LIPASE,[2],14.83 u/L
same,PHOSPHORUS,[2],11.28 mg/dL
same,POTASSIUM,[2],8.46 MEQ/L
same,SODIUM,[2],126.88 MEQ/L
same,TOTAL BILIRUBIN,[2],0.37 mg/dL
same,TOTAL PROTEIN,[2],5.53 G/DL
same,URIC ACID,[2],1.52 mg/dL
same,ABSOLUTE BASOPHIL,[3],0 CELLS/uL
same,ABSOLUTE EOSINOPHIL,[3],0 CELLS/uL
same,ABSOLUTE LYMPHOCYTE,[3],14451.67 CELLS/uL
same,ABSOLUTE MONOCYTE,[3],45 CELLS/uL
same,ABSOLUTE SEGMENTED NEUTROPHIL,[3],1203.33 CELLS/uL
same,BASOPHIL,[3],0%
same,EOSINOPHIL,[3],0%
same,ERYTHROCYTE COUNT,[3],5.64 x10E6/uL
same,HEMATOCRIT,[3],35.07%
same,HEMOGLOBIN,[3],13.97 G/DL
same,LEUKOCYTE COUNT,[3],15.7 x10E3/uL
same,LYMPHOCYTE,[3],92%
same,MEAN CORPUSCULAR HEMOGLOBIN,[3],24.77 pg
same,MEAN CORPUSCULAR HEMOGLOBIN CONCENTRATION,[3],39.83 G/DL
same,MEAN CORPUSCULAR VOLUME,[3],62.2 fL
same,MONOCYTE,[3],0.33%
same,NEUTROPHIL,[3],7.67%
same,NUCLEATED RED BLOOD CELLS,[3],0.33 /100WBC
same,PLATELET COUNT,[3],1161 x10E3/uL
same,ALANINE AMINOTRANSFERASE,[3],67.67 u/L
same,ALBUMIN,[3],4 G/DL
same,ALKALINE PHOSPHATASE,[3],395.67 u/L
same,ASPARTATE AMINOTRANSFERASE,[3],96.33 u/L
same,BLOOD UREA NITROGEN,[3],9.67 mg/dL
same,CARBON DIOXIDE,[3],25 mmol/L
same,CHLORIDE,[3],102.33 MEQ/L
same,CHOLESTEROL,[3],76.33 mg/dL
same,CREATINE PHOSPHOKINASE,[3],757 u/L
same,CREATININE,[3],0.16 mg/dL
same,GLUCOSE,[3],172.67 mg/dL
same,LACTATE DEHYDROGENASE,[3],255.33 u/L
same,LIPASE,[3],10.33 u/L
same,PHOSPHORUS,[3],11.53 mg/dL
same,POTASSIUM,[3],6.56 MEQ/L
same,SODIUM,[3],142.23 MEQ/L
same,TOTAL BILIRUBIN,[3],0.13 mg/dL
same,TOTAL PROTEIN,[3],5.83 G/DL
same,URIC ACID,[3],1.93 mg/dL
